Earlier results as cited in patent publication US7151091B2, “Compositions and methods for preventing infection” (The Johns Hopkins University, priority 2002, dated 2006).

What was measured:
[1] = concentrations ranging from 5–100 mM
[2] = system: human immunodeficiency virus (HIV); conditions: given to HIV-infected pregnant women before and during childbirth and to their infants after childbirth

| Compound | removal of membrane cholesterol [1] | reduction of HIV transmission [2] |
| --- | --- | --- |
| CC(O)COC[C@H]1O[C@@H]2O[C@H]3[C@H](O)[C@@H](O)[C@@H](O[C@H]4[C@H](O)[C@@H](O)[C@@H](O[C@H]5[C@H](O)[C@@H](O)[C@@H](O[C@H]6[C@H](O)[C@@H](O)[C@@H](O[C@H]7[C@H](O)[C@@H](O)[C@@H](O[C@H]8[C@H](O)[C@@H](O)[C@@H](O[C@H]1[C@H](O)[C@H]2O)O[C@@H]8COCC(C)O)O[C@@H]7COCC(C)O)O[C@@H]6COCC(C)O)O[C@@H]5COCC(C)O)O[C@@H]4COCC(C)O)O[C@@H]3COCC(C)O (stereo partly drawn) [2-OH-propyl-beta-cyclodextrin] | removes membrane cholesterol within minutes | – |
| Cc1cn([C@H]2C[C@H](N=[N+]=[N-])[C@@H](CO)O2)c(=O)[nH]c1=O [zidovudine] | – | two-thirds |
